Data as given in patent US20060281806A1, “Treatment and inhibition of disease conditions using flexible heteroarotinoids” (priority 2005, published 2006).

Experiments:
[1] = system: NCI human tumor cell line panel; assay: SHetA2 cytotoxicity in NCI human tumor cell line panel; assay type: cell-based; details: 48 h
Procedure: The SHetA2 compound was evaluated in the National Cancer Institute (NCI) human tumor cell line panel by the Developmental Therapeutics Program (DTP). The human tumor cell lines were grown in RPMI 1640 medium containing 5% fetal bovine serum and 2 mM L-glutamine. Cells were inoculated into 96 well microtiter plates at densities ranging from 5,000 to 40,000 cells/well depending on the doubling time of individual cell lines and incubated for 24 h prior to addition of SHetA2. After 24 h, two plates of each cell line were fixed in situ with TCA, to represent a measurement of the cell population for each cell line at the time of drug addition (Tz). Drugs were dissolved in dimethyl sulfoxide (DMSO) and diluted in complete medium containing 50 μg/ml gentamicin, prior to addition to the culture wells. […] […] The absorbance was read on an automated plate reader at a wavelength of 515 nm. Using the seven absorbance measurements (time zero, (Tz), control growth, (C), and test growth in the presence of drug at the five concentration levels (Ti)), the GI50 was calculated from [(Ti−Tz)/(C−Tz)]×100=50. […]

B16 mouse melanoma = assay: B16 melanoma syngeneic tumor model; assay type: in vivo; details: oral 60 mg/kg/day
Procedure: FIG. 12. Various Xenograft tumors stained with CD34 antibodies (brown) to identify endothelium. The B16 mouse melanoma cell line was established as a syngeneic tumor in an immunocompetent mouse model and the human Caki renal cancer and A2780 ovarian xenograft tumors in immunocompromised mice. The treated mice were gavaged with 60 mg/kg/day SHetA2 and the untreated were gavaged with solvent only. The tumors were excised and sections were stained with the anti-CD34 antibody to detect endothelial cells (brown stain).
Survival was the primary endpoint of those studies. […] Tumor growth was the primary endpoint of the renal cancer study.

ovarian cancer cells = assay: Microarray analysis of gene expression in SHetA2-treated ovarian cancer cells; assay type: cell-based, human
Procedure: Microarray analysis was conducted to determine specific disease causing genes which were expressed at higher (>1 fold) or lower (<1 fold) levels than normal in ovarian cancer cells treated with SHetA2 (see Table 6).

CC1(C)CC(C)(C)c2cc(NC(=S)Nc3ccc([N+](=O)[O-])cc3)ccc2S1 [SHetA2]
percent growth ([1]; 10 and 100 μM SHetA2, majority of cell lines): negative percent growth levels | GI50 values ([1]; 55 cell lines representing 9 cancer types): micromolar range | survival (B16 mouse melanoma; melanoma model): improved survival | development of blood vessels inside tumors (anti-CD34 staining) (B16 mouse melanoma; melanoma): inhibited the development of blood vessels | Fold (ovarian cancer cells; gene: 3-hydroxyisobutyrate dehydrogenase, mitochondrial precursor, AK025558): 0.00 Fold | Fold (ovarian cancer cells; gene: A kinase (PRKA) anchor protein 1, clone MGC:1807, BC000729.1): 2.00 Fold | Fold (ovarian cancer cells; gene: A kinase anchor protein S-AKAP84 mRNA, U34074.1): 2.14 Fold | Fold (ovarian cancer cells; gene: ADAMTS1, AK023795.1): 0.43 Fold | Fold (ovarian cancer cells; gene: ADAMTS5, NM_007038.1): 0.23 Fold | Fold (ovarian cancer cells; gene: ASPLTFE3 type 2 fusion protein, ASPLTFE3 type 1 fusion protein mRNA, AY034077.1): 0.46 Fold | Fold (ovarian cancer cells; gene: ATP-binding cassette, sub-family B (MDRTAP), member 6 (ABCB6), NM_005689.1): 0.46 Fold | Fold (ovarian cancer cells; gene: ATP-binding cassette, sub-family D (ALD), member 2 (ABCD2), NM_005164.1): 2.71 Fold | Fold (ovarian cancer cells; gene: Amyotrophic lateral sclerosis 2 (juvenile) chromosome region, candidate 3 (ALS2CR3), NM_015049.1): 0.41 Fold | Fold (ovarian cancer cells; gene: Angiopoietin-like 2 (ANGPTL2), NM_012098.1): 2.16 Fold | Fold (ovarian cancer cells; gene: B-cell CLLlymphoma 3 (BCL3), AI829875): 2.58 Fold | Fold (ovarian cancer cells; gene: B-cell CLLlymphoma 3 (BCL3), NM_005178.1): 2.05 Fold | Fold (ovarian cancer cells; gene: BAGE2 antigen (BAGE2), AF218570.1): 0.34 Fold | Fold (ovarian cancer cells; gene: BAM in multiple myeloma, AF455755.1): 3.05 Fold | Fold (ovarian cancer cells; gene: Butyrophilin (BTF3), Cluster Incl. U90548): 2.15 Fold | Fold (ovarian cancer cells; gene: Butyrophilin, subfamily 3, member A2 (BTN3A2), AI991252): 2.31 Fold | Fold (ovarian cancer cells; gene: Butyrophilin, subfamily 3, member A3 (BTN3A3), NM_006994.2): 2.04 Fold | Fold (ovarian cancer cells; gene: Cervical cancer suppressor gene-4 protein (HCCS-4), AF465843.1): 2.06 Fold | Fold (ovarian cancer cells; gene: Chromosome 5 open reading frame 4 (C5ORF4), NM_016348.1): 2.76 Fold | Fold (ovarian cancer cells; gene: Deleted in lymphocytic leukemia, 2/DEF = Homo sapiens BCMS-upstream neighbor (BCMSUN), AF264787.1): 0.33 Fold | Fold (ovarian cancer cells; gene: Deleted in lymphocytic leukemia, BCMS-upstream neighbor (BCMSUN) (DLEU2), AF264787.1): 0.40 Fold | Fold (ovarian cancer cells; gene: Dysferlin, limb girdle muscular dystrophy 2B (DYSF), NM_003494.1): 2.16 Fold | Fold (ovarian cancer cells; gene: Dystrophin, dystrophin Dp40 isoform (DMD), NM_004019.1): 2.76 Fold | Fold (ovarian cancer cells; gene: EHT protein, AF068266.1): 2.80 Fold | Fold (ovarian cancer cells; gene: ESTs, Moderately similar to S72399 ras-homolog GTPase rab28 isoform S, AI080106): 7.75 Fold | Fold (ovarian cancer cells; gene: ESTs, Weakly similar to DRPL_Human Atrophin-1 (DRPL) in Huntington's disease (HD) and DRPLA, AI358954): 2.52 Fold | Fold (ovarian cancer cells; gene: ESTs, Weakly similar to DRPL_Human Atrophin-1 (DRPL) in dentatorubral-pallidoluysian atrophy, AI358954): 2.52 Fold | Fold (ovarian cancer cells; gene: Endothelial cell growth factor 1 (platelet-derived)/Thymidine phosphorylase, NM_001953): 0.42 Fold | Fold (ovarian cancer cells; gene: Enhancer of zeste (Drosophila) homolog 2 (EZH2) (USP14), NM_004456.1): 0.47 Fold | Fold (ovarian cancer cells; gene: FLJ23538 fis, highly similar to BETA2 Human MEN1 region clone epsilonbeta (BETA2), AI042152): 0.31 Fold | Fold (ovarian cancer cells; gene: FYN oncogene related to SRC, FGR and YES (FYN), N20923): 0.13 Fold | Fold (ovarian cancer cells; gene: FYN oncogene related to SRC, FGR and YES, c-syn protooncogene, M14333.1): 0.44 Fold | Fold (ovarian cancer cells; gene: Facioscapulohumeral muscular dystrophy (FSHD) gene region, D4Z4 tandem repeat unit, D38024): 2.43 Fold | Fold (ovarian cancer cells; gene: Familial Mediterranean fever locus region, AF098968.1): 0.30 Fold | Fold (ovarian cancer cells; gene: Fibroblast growth factor 2 (basic)(FGF2), NM_002006.1): 0.35 Fold | Fold (ovarian cancer cells; gene: Fibroblast growth factor 18 (FGF18), NM_003862.1): 2.75 Fold | Fold (ovarian cancer cells; gene: Galactosamine (N-acetyl)-6-sulfate sulfatase, NM_000512): 0.52 Fold | Fold (ovarian cancer cells; gene: Glypican-6 (GPC6), AF111178.1): 2.07 Fold | Fold (ovarian cancer cells; gene: Hemochromatosis splice variant 495-2314del, AF144243.1): 3.01 Fold | Fold (ovarian cancer cells; gene: IMAGE:3050107 mRNA, TBC1 domain family, BC001525): 0.67 Fold | Fold (ovarian cancer cells; gene: Keratocan (KERA), NM_007035.2): 0.50 Fold | Fold (ovarian cancer cells; gene: Lipoma cell line Li-538SV40 ectopic sequence from HMGI-C fusion mRNA (LI), AI990940): 0.47 Fold | Fold (ovarian cancer cells; gene: METH1 protein (METH1), AF060152.1): 0.39 Fold | Fold (ovarian cancer cells; gene: Myeloidlymphoid leukemia 2 (MLL2), AF105279.1): 0.31 Fold | Fold (ovarian cancer cells; gene: Myeloidlymphoid or mixed-lineage leukemia, translocated to, 4 (HGC6.3), AB016902.2): 5.07 Fold | Fold (ovarian cancer cells; gene: N-cym protein, NM_006316): 2.38 Fold | Fold (ovarian cancer cells; gene: NICE-5 protein, AW779859): 0.48 Fold | Fold (ovarian cancer cells; gene: Nasopharyngeal carcinoma susceptibility protein (LZ16), NM_013275.1): 0.41 Fold | Fold (ovarian cancer cells; gene: Nephropontin, M83248.1): 2.34 Fold | Fold (ovarian cancer cells; gene: Neuroblastoma, suppression of tumorigenicity 1 (NBL1), NM_005380.1): 3.07 Fold | Fold (ovarian cancer cells; gene: Niban protein (NIBAN), NM_022083.1): 0.21 Fold | Fold (ovarian cancer cells; gene: Novel MAFF LIKE protein, Cluster Incl. AL021977): 0.47 Fold | Fold (ovarian cancer cells; gene: PNAS-128 in leukemia, AF277186.1): 0.36 Fold | Fold (ovarian cancer cells; gene: Peroxisomal biogenesis factor 3 (PEX3), NM_003630.1): 0.43 Fold | Fold (ovarian cancer cells; gene: Peroxisomal biogenesis factor 14 (PEX14), NM_004565.1): 2.06 Fold | Fold (ovarian cancer cells; gene: Promyelocytic leukemia (PML), NM_002675.1): 2.76 Fold | Fold (ovarian cancer cells; gene: Prostate cancer associated protein 5 (PCANAP5), AI299378): 0.23 Fold | Fold (ovarian cancer cells; gene: Prothymosin alpha (PTMA), AF257099): 2.60 Fold | Fold (ovarian cancer cells; gene: Putative c-Myc-responsive (RCL), AA523444): 0.41 Fold | Fold (ovarian cancer cells; gene: RASSF3 isoform A, putative tumor suppressor, AY062002.1): 2.88 Fold | Fold (ovarian cancer cells; gene: RNA binding motif protein 5, putative tumor suppressor (LUCA15), U23946.1): 0.43 Fold | Fold (ovarian cancer cells; gene: Regulatory factor X-associated protein (RFXAP), NM_000538.1): 0.41 Fold | Fold (ovarian cancer cells; gene: Retinitis pigmentosa GTPase regulator (RPGR), NM_000328.1): 0.47 Fold | Fold (ovarian cancer cells; gene: Rhabdoid tumor deletion region protein 1 (RTDR1), NM_014433.1): 2.20 Fold | Fold (ovarian cancer cells; gene: SNRPN upstream reading frame (SNURF), BF114870): 0.39 Fold | Fold (ovarian cancer cells; gene: Sarcoglycan, gamma (35 kD dystrophin-associated glycoprotein), NM_000231.1): 0.04 Fold | Fold (ovarian cancer cells; gene: Similar to vitelliform macular dystrophy (Best disease, bestrophin), BC041664.1): 0.26 Fold | Fold (ovarian cancer cells; gene: Smcx homolog, X chromosome (mouse), NM_004187): 0.61 Fold | Fold (ovarian cancer cells; gene: Sulfite oxidase (SUOX), NM_000456.1): 2.11 Fold | Fold (ovarian cancer cells; gene: Thrombospondin 1 (THBS1), BE999967): 0.42 Fold | Fold (ovarian cancer cells; gene: Thrombospondin 4, NM_003248): 0.58 Fold | Fold (ovarian cancer cells; gene: Thromospondin 4 (THBS4), NM_03248.1): 2.58 Fold | Fold (ovarian cancer cells; gene: Transglutaminase 4 (prostate), NM_003241): 0.24 Fold | Fold (ovarian cancer cells; gene: Translocase of inner mitochondrial membrane 44 (yeast) homolog (TIM44), NM_006351.1): 0.50 Fold | Fold (ovarian cancer cells; gene: Trichorhinophalangeal syndrome I gene (TRPS1), NM_014112.1): 0.36 Fold | Fold (ovarian cancer cells; gene: UDP-galactose-4-epimerase, NM_000403): 0.66 Fold | Fold (ovarian cancer cells; gene: Unknown protein mRNA within the p53 intron 1, U58658.1): 0.45 Fold | Fold (ovarian cancer cells; gene: Vascular endothelial growth factor (VEGF), AF022375.1): 0.47 Fold | Fold (ovarian cancer cells; gene: Vitelliform macular dystrophy (Best disease, bestrophin) (VMD2), NM_004183.1): 0.28 Fold | Fold (ovarian cancer cells; gene: aarF domain containing kinase 4, BC013114): 2.30 Fold | Fold (ovarian cancer cells; gene: v-Myc avian myelocytomatosis viral related oncogene, neuroblastoma derived (MYCN), BC002712.1): 3.99 Fold
